Patent US12516038B2, “Inhibitors of antigen presentation by HLA-DR” (Janssen Pharmaceutica NV, priority 2020, dated 2026)

Experiments:
[1] = tested on: HLA-DR4 restricted mouse T cell hybridoma line (DR4.CII.36.8) with HLA-DRB1*04:01-expressing Boleth cells; assay: HLA-DR4-restricted peptide-specific T cell-based assay (hybridoma assay); conditions: Mus musculus, T-cell, 6 h, inhibition of IL-2 production, CII259-273 peptide presented by Boleth cells
In short: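 Boleth cells (HLA-DRB1*04:01 B cell line) pre-incubated with compound 1 h at 37° C. in DMEM/1% FCS, then DR4.CII.36.8 mouse T cell hybridoma (CII259-273-specific) added for 6 h with CII259-273 peptide. Supernatant mouse IL-2 by AlphaLISA; IC50 by 4-PL fit of 8-point duplicate titrations.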

[2] = biological target: HLA-DRB1*0401 (Homo sapiens (Human), UniProt P01903+P01911, A100K/A169T/DEL228-266/F76Y/I96L/K127E/L162R/M171V/N62H/P40V/Q125Y/R42H/S133A/S149N/S66Y/V115G/V209L/W38E); assay: HLA-DR4 HTRF assay; type: binding; conditions: inhibition of loading of Alexa Fluor 647-labeled Cit-CII peptide onto HLA-DR4 (CLIP cleaved)
In short: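 HLA-DRB1*04:01 construct (α/β fused to human Fc, CLIP pre-cleaved by HRV3C overnight at 4° C) at 3 nM was preincubated 45 min with compound and 1 nM anti-Fc-Tb donor, then 40 nM Alexa647-Cit-CII1236-1249 peptide added. After 90 min at 37° C, the 665/620 nm HTRF ratio gave % inhibition; IC50 by nonlinear regression.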

[3] = tested on: human peripheral blood CD4+ helper T cells; assay: Pan-CD4+ T cell activation (off-target assay); type: cell-based; conditions: Homo sapiens, T-cell, 24 h, anti-CD3/anti-CD28 stimulation, IL-2 production by ELISA
In short: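 Human peripheral blood CD4+ T cells, with no APCs present, were stimulated with plate-bound anti-CD3 (1 μg/mL coating) plus soluble anti-CD28 (1 μg/mL) in the presence of compound or vehicle for 24 h. IL-2 in the supernatant was quantified by ELISA.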

Compound	IC50 [1] [µM]	IC50 [2] [µM]	IC50 [3] [µM]
Cc1c(O[C@@H](c2ccc(Cl)cc2)c2ccc(C(N)=O)cc2)ccc2c1OCCC2=O (single isomer, unassigned) [Example 57a, (*R)-4-((4-chlorophenyl)((8-methyl-4-oxochroman-7-yl)oxy)methyl)benzamide]	4.8	2.3	> 15
NC(=O)c1ccc([C@H](Oc2ccc3c(c2)OCCC3=O)c2ccncc2C(F)(F)F)cc1 (single isomer, unassigned) [Example 19b, (*S)-4-(((4-oxochroman-7-yl)oxy)(3-(trifluoromethyl)pyridin-4-yl)methyl)benzamide]	7.6	1.2	4.7
Cc1cc2c(cc1O[C@H](c1ccncc1)c1ccc(C(N)=O)cc1)OCCC2=O (single isomer, unassigned) [Example 49b, (*S)-4-(((6-Methyl-4-oxochroman-7-yl)oxy)(pyridin-4-yl)methyl)benzamide]	3	1	15
Cc1c(O[C@H](c2ccc(C(N)=O)cc2)c2ccc(Cl)cn2)ccc2c1OCCC2=O (single isomer, unassigned) [Example 62a, (*R)-4-((5-chloropyridin-2-yl)((8-methyl-4-oxochroman-7-yl)oxy)methyl)benzamide]	8.5	1.5	4.7
Cc1cc([C@H](Oc2ccc3c(c2)OCCC3=O)c2ccc(C(N)=O)cc2)ccn1 (single isomer, unassigned) [Example 15a, (*R)-4-((2-Methylpyridin-4-yl)((4-oxochroman-7-yl)oxy)methyl)benzamide]	0.61	0.44	> 15
Cc1c(O[C@@H](c2ccccc2)c2ccc(C(=O)O)cc2)ccc2c1OCCC2=O (single isomer, unassigned) [Example 70b, (*S)-4-(((8-methyl-4-oxochroman-7-yl)oxy)(phenyl)methyl)benzoic acid]	4.8	1.5	9.9
Cc1cc([C@@H](Oc2c(F)cc3c(c2C)OCCC3=O)c2ccc(C(N)=O)cc2)cc(C)n1 (single isomer, unassigned) [Example 94b, (*S)-4-((2,6-dimethylpyridin-4-yl)((6-fluoro-8-methyl-4-oxochroman-7-yl)oxy)methyl)benzamide]	0.89	0.23	9.9
Cc1c(O[C@@H](c2ccc(C(N)=O)cc2)c2ccccc2C#N)ccc2c1OCCC2=O (single isomer, unassigned) [Example 61b, (*S)-4-((2-cyanophenyl)((8-methyl-4-oxochroman-7-yl)oxy)methyl)benzamide]	5.2	0.96	> 15
Cc1c(O[C@H](c2ccc(C(N)=O)cc2)c2cccc(C#N)c2)ccc2c1OCCC2=O (single isomer, unassigned) [Example 60a, (*R)-4-((3-cyanophenyl)((8-methyl-4-oxochroman-7-yl)oxy)methyl)benzamide]	0.74	1.8	4.7
O=C1CCOc2cc(O[C@@H](c3ccncc3)c3ccccc3F)ccc21 (single isomer, unassigned) [Example 1b, (*S)-7-((2-Fluorophenyl)(pyridin-4-yl)methoxy)chroman-4-one]	3.1	1.2	3.1
CC[C@H]1CC(=O)c2ccc(OCc3ccnc(C)c3)cc2O1 (single isomer, unassigned) [Example 118b, (*S)-2-ethyl-7-((2-methylpyridin-4-yl)methoxy)chroman-4-one]	12	0.99	> 15
N#Cc1ccc([C@H](Oc2ccc3c(c2)OCCC3=O)c2ccncc2)c2ccccc12 (single isomer, unassigned) [Example 37a, (*R)-4-(((4-oxochroman-7-yl)oxy)(pyridin-4-yl)methyl)-1-naphthonitrile]	9.3	33	2
NC(=O)c1ccc([C@H](Oc2ccc3c(c2)OCCC3=O)c2ccnc(N)c2)cc1 (single isomer, unassigned) [Example 28b, (*S)-4-((2-aminopyridin-4-yl)((4-oxochroman-7-yl)oxy)methyl)benzamide]	3.5	1.7	> 15
Cc1cc2c(c(C)c1O[C@H](c1ccncc1)c1ccc(C#N)cc1)OCCC2=O (single isomer, unassigned) [Example 88b, (*S)-4-(((6,8-dimethyl-4-oxochroman-7-yl)oxy)(pyridin-4-yl)methyl)benzonitrile]	5.9	0.36	9.9
Cc1c(O[C@H](c2ccncc2)c2ccc(C(N)=O)cc2)c(F)cc2c1OCCC2=O (single isomer, unassigned) [Example 58b, (*S)-4-(((6-fluoro-8-methyl-4-oxochroman-7-yl)oxy)(pyridin-4-yl)methyl)benzamide]	2.6	0.73	9.9
C[C@@H]1CC(=O)c2ccc(O[C@@H](c3ccncc3)c3ccc(C(N)=O)cc3)cc2O1 (single isomer, unassigned) [Example 39b, 4-((*R)—(((*R)-2-Methyl-4-oxochroman-7-yl)oxy)(pyridin-4-yl)methyl)benzamide]	0.6	0.85	9.9
O=C1CCOc2cc(OC(c3ccccc3)c3ccncc3)ccc21 (racemic) [Example 114, (R,S)-7-(Phenyl(pyridin-4-yl)methoxy)chroman-4-one]	11	3.4	> 10
COc1ccccc1C(Oc1ccc2c(c1)OCCC2=O)c1ccncc1 (racemic) [Example 14, 7-((2-Methoxyphenyl)(pyridin-4-yl)methoxy)chroman-4-one]	5	2.4	> 15
Cc1c(O[C@H](c2ccncc2)c2cccc(CNC(N)=O)c2)ccc2c1OCCC2=O (single isomer, unassigned) [Example 81b, (*S)-1-(3-(((8-methyl-4-oxochroman-7-yl)oxy)(pyridin-4-yl)methyl)benzyl)urea]	1.3	0.61	> 15
Cc1c(O[C@H](c2ccncc2)c2ccc(C(N)=O)cc2OCC(C)C)ccc2c1OCCC2=O (single isomer, unassigned) [Example 85a, (*R)-3-isobutoxy-4-(((8-methyl-4-oxochroman-7-yl)oxy)(pyridin-4-yl)methyl)benzamide]	0.24	0.81	3.7
Cc1cc2c(c(C)c1O[C@H](c1ccncc1)c1ccc(C(N)=O)cc1)OCCC2=O (single isomer, unassigned) [Example 89b, (*S)-4-(((6,8-dimethyl-4-oxochroman-7-yl)oxy)(pyridin-4-yl)methyl)benzamide]	1.2	0.47	4.7
NC(=O)c1ccc([C@@H](Oc2ccc3c(c2Br)OCCC3=O)c2ccncc2)cc1 (single isomer, unassigned) [Example 102a, (*R)-4-(((8-bromo-4-oxochroman-7-yl)oxy)(pyridin-4-yl)methyl)benzamide]	0.099	78	15
C[C@H]1CC(=O)c2ccc(O[C@@H](c3ccncc3)c3ccc(C(N)=O)cc3)cc2O1 (single isomer, unassigned) [Example 39c, 4-((*R)—(((*S)-2-Methyl-4-oxochroman-7-yl)oxy)(pyridin-4-yl)methyl)benzamide]	1.1	0.99	9.9
Cc1c(O[C@@H](c2ccc(C(N)=O)cc2)c2ccc(C(=O)O)cc2)ccc2c1OCCC2=O (single isomer, unassigned) [Example 71b, (*S)-4-((4-carbamoylphenyl)((8-methyl-4-oxochroman-7-yl)oxy)methyl)benzoic acid]	0.2	0.93	> 15
COc1ccc(COc2cccc([C@H](Oc3ccc4c(c3)OCCC4=O)c3ccncc3)c2)cc1 (single isomer, unassigned) [Example 4a, (*R)-7-((3-((4-Methoxybenzyl)oxy)phenyl)(pyridin-4-yl)methoxy)chroman-4-one]	2.9	6.9	7.8
CC[C@@H]1COc2cc(O[C@H](c3ccncc3)c3ccc(C(N)=O)cc3)ccc2C1=O (single isomer, unassigned) [Example 45a, 4-((*S)—(((*R)-3-ethyl-4-oxochroman-7-yl)oxy)(pyridin-4-yl)methyl)benzamide]	3.4	1.1	> 15
COc1ccc(COc2ccc([C@@H](Oc3ccc4c(c3)OCCC4=O)c3ccncc3)cc2)cc1 (single isomer, unassigned) [Example 17a, (*R)-7-((4-((4-Methoxybenzyl)oxy)phenyl)(pyridin-4-yl)methoxy)chroman-4-one]	4.3	5.8	15
